Test results taken from ChEMBL document CHEMBL3085729, “Total synthesis of schizocommunin and revision of its structure” (J Nat Prod, 2013).

How the values were obtained:
HeLa = experiment: Antiproliferative activity against human HeLa cells after 48 hrs; format: functional, cell-based
A549 = experiment: Antiproliferative activity against human A549 cells after 48 hrs; format: functional, cell-based; details: A549, 48 h

SMILES | IC50 (HeLa) [µM] | IC50 (A549) [µM]
O=C1Nc2ccccc2/C1=C\c1nnc2ccccc2c1Cl | 7.8 | 93.3
CC(=O)N1C(=O)/C(=C/c2nnc3ccccc3c2Cl)c2ccccc21 | 28.8 | > 100
COc1c(/C=C2/C(=O)Nc3ccccc32)nnc2ccccc12 | 19.6 | > 100

Now from value to compound:

IC50 (HeLa) [µM] | IC50 (A549) [µM] | SMILES
> 100 | > 100 | O=C1Nc2ccccc2/C1=C\c1n[nH]c2ccccc2c1=O
15.2 | > 100 | O=C1Nc2ccccc2/C1=C/c1nc2ccccc2c(=O)[nH]1
